Earlier results as cited in patent US10487314B2, “Inhibition of serotonin expression in gut enteroendocrine cells results in conversion to insulin-positive cells” (priority 2014, dated 2019).

Tests used:
ALDH1A3 mRNA = details: human prostate
5-HT2B = 5-HT2B (Homo sapiens, UniProt P41595)
Chain of 5-HT2B (P41595 whole entry, species assumed): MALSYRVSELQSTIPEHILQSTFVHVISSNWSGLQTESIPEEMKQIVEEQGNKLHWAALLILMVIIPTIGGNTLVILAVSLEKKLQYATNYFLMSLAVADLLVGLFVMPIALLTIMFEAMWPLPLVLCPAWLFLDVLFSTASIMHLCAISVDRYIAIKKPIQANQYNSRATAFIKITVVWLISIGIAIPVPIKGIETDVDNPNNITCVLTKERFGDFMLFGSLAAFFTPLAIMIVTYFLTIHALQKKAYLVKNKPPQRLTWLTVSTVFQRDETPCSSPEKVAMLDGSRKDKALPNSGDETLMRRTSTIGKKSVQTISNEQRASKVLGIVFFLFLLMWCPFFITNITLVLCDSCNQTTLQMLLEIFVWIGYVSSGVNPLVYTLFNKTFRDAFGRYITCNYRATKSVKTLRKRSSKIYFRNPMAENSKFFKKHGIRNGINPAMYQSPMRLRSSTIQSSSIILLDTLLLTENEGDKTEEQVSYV

With `C[C@]12CCC(=O)C[C@@H]1CC[C@@H]1[C@@H]2CC[C@]2(C)[C@@H](O)CC[C@@H]12` [Androgen dihydrotestosterone (DHT), dihydrotestosterone] as the molecule, how does the “increase in ALDH1A3 mRNA levels” value (ALDH1A3 mRNA) read?
The value was 4 fold.

Which “selectivity over 5-HT2A” value (5-HT2B) does the source give for `Cc1cc([N+](=O)[O-])c(N2CCN(Cc3ccccc3)CC2)cc1N` [EGIS-7625] here?
The value was “high selectivity”.

Which results are given for `CC(C)c1cc(-c2ccc(F)c3ccccc23)nc(N)n1` [RS-127,445]?
oral bioavailability: orally bioavailable; affinity for 5-HT2B (5-HT2B): high affinity; subtype selectivity (5-HT2B; 5-HT2B versus other subtypes): 1000 ×
